Assays:
KM12C = test: microarray analysis; format: cell-based, human; conditions: 1 μM, 24 hours, vs untreated
[1] = test system: patient-derived CD8+ T cells; test: ex vivo cytokine profiling of supernatant (Luminex); format: cell-based, human; conditions: forty-eight hours (1 NM) vs DMSO
Description: Human cytokine profiling. Human cell line culture supernatants were analyzed using an R&D systems Human Premixed Multi-Analyte Kit (R&D Systems, Inc., Minneapolis, MN, USA) and a Luminex 200 (RRID: SCR_018025) Instrument (LX200-XPON-RUO, Luminex Corporation, Austin, TX, USA) according to the manufacturer's instructions. Sample levels of TNF-α, 4-1BB/TNFRSF9/CD137, IL-8/CXCL8, Ferritin, IFN-β, IL-10, CCL2/JE/MCP-1, VEGF, CXCL13/BLC/BCA-1, IFN-γ, CCL20/MIP-3 α, CCL3/MIP-1 α, CCL22/MDC, CCL4/MIP-1 β, Fas Ligand/TNFSF6, IL-17/1L-17A, IL-2, BAFF/BLyS/TNFSF13B, GM-CSF, CXCLS/ENA-78, TRANCE/TNFSF11/RANK L, CXCL9/MIG, G-CSF, IFN-γ R1/CD119, VEGFR3/Flt-4, C-Reactive Protein/CRP, CXCL11/I-TAC, IL-21, CXCL14/BRAK, IL-6, Fas/TNFRSF6/CD95, TRAIL R3/TNFRSF10C, IL-4, CCL5/RANTES, PD-L1/137-H1, CCL7/MCP-3/MARC, Chitinase 3-like 1, CXCL10/IP-10/CRG-2, IL-1 μ/IL-1F2, IL-7, Prolactin, CCL8/MCP-2, TRAIL R2/TNFRSF10B, M-CSF, IL-15, Granzyme B, IFN-α, TREM-1, IL-12/1L-23 p40, TRAIL/TNFSF10, CCL11/Eotaxin, and 1L-18/1L-1F4. Quantitative analysis with 6 standards and a minimum of 50 counts per bead region was used with the Luminex to generate analyte values reported as picograms/milliliter (pg/mL). Sample concentrations less than the lower limit of detection for each particular analyte were recoded as the lower limit value divided by 10. Sample concentrations above the upper limit of detection for a particular analyte were recoded as the upper limit of detection.
The inventors collected peripheral blood during the patient's best response at fifteen months, corresponding with their lowest concentration of sIL-2 r in the peripheral blood, and isolated CD8+, non-ATLL T cells for further analysis. The inventors then treated these CD8+ cells ex vivo with elraglusib and assessed changes in cytokine, chemokine, and growth factor profiles in the cell culture supernatant using Luminex (LX200) technology and a custom cytokine panel described by Huntington, Louie, Zhou, & EI-Deiry, A high-throughput customized cytokinome screen of colon cancer cell responses to small-molecule oncology drugs. Oncotarget, 12, 1980-1991 (2021).
Treatment of patient-derived CD8+ T cells with elraglusib increases granzyme B, TRAIL, and IFN-gamma secretion while decreasing VEGF, TNF-alpha, and CCL5/RANTES concentrations in cell culture supernatant in comparison to control groups. Patient-derived CD8+ cytotoxic T cells were treated with elraglusib for forty-eight hours (1 NM) or control (DMSO) and cytokine concentration was measured in cell culture supernatants. (Statistical significance was calculated with GraphPad Prism 9.3.1 using unpaired t tests and is denoted on each plot as follows: P>0.05=n.s., P≤0.05=*, P≤0.01=**, P≤0.001=***, and P≤0.0001=**** (N=3).

## Cn1cc(C2=C(c3coc4ccc(F)cc34)C(=O)NC2=O)c2cc3c(cc21)OCO3 [elraglusib]
KM12C
  AGGF1 Fold Change: −1.6
  BARD1 Fold Change: −3.03
  BCL9 Fold Change: −1.55
  BIK Fold Change: 1.51
  BRAF Fold Change: −2.05
  BRCA1 Fold Change: −1.71
  BRD3 Fold Change: −1.58
  CCND2 Fold Change: −1.58
  CCNE1 Fold Change: −1.57
  CCNE2 Fold Change: −2.64
  CD109 Fold Change: −2.09
  CDC25C Fold Change: −1.55
  CDCA2 Fold Change: −1.51
  CDK1 Fold Change: −2
  CXCL1 Fold Change: −1.53
  E2F7 Fold Change: −2.5
  E2F8 Fold Change: −3.16
  ERBB2IP Fold Change: −1.88
  FZD3 Fold Change: −1.76
  GDF15 Fold Change: −2.29
  GZMA Fold Change: 1.53
  IGF2BP2 Fold Change: −1.51
  IL6ST Fold Change: −1.88
  IL27RA Fold Change: −1.72
  IL32 Fold Change: 1.55
  IRF2BP2 Fold Change: −1.6
  JMY Fold Change: −2.03
  LTBP1 Fold Change: −2.24
  MAP2K6 Fold Change: −3.66
  MAP3K1 Fold Change: −1.92
  MDM2 Fold Change: −1.61
  MET Fold Change: −1.79
  MKI67 Fold Change: −1.53
  MTBP Fold Change: −1.58
  MTDH Fold Change: −1.74
  NFKBIA Fold Change: −2.51
  NRP1 Fold Change: −1.88
  TAB3 Fold Change: −1.63
  TGFBR2 Fold Change: −2.11
  TGFBR3 Fold Change: −3.72
  TLR3 Fold Change: −2.25
  TNFRSF1B Fold Change: −1.56
  TNFRSF10A Fold Change: −1.54
  TNFRSF11A Fold Change: −1.64
  TNFRSF12A Fold Change: 1.53
  TNIK Fold Change: −1.59
  TRAF5 Fold Change: −1.52
  TRAF6 Fold Change: −1.57
  TRAIP Fold Change: 1.53
  TRIB1 Fold Change: −2.37
[1]
  CCL5/RANTES concentration in supernatant: decreasing
  IFN-gamma secretion: increases
  TNF-alpha concentration in supernatant: decreasing
  TRAIL secretion: increases
  VEGF concentration in supernatant: decreasing
  granzyme B secretion: increases

From US20240041830A1, “CIRCULATING BIOMARKERS OF RESPONSE TO PD-1/PD-L1 BLOCKADE AND GSK-3 INHIBITION” (Brown University, priority 2022, published 2024)
